One assay is filed under the species Cavia porcellus. The assay can be described thus: Tested for naloxone pA2 activity in guinea pig ileum. The class given is functional.
Assay [1] deals with Kappa-type opioid receptor (Cavia porcellus, UniProt P41144). The experiment in a line: Tested for inhibitory effect on binding of [3H]bremazocine to opioid receptor kappa in guinea pig cerebellum membranes. The assay is classed as cell membranes, Membrane.
Another assay has as its target Mu-type opioid receptor (Cavia porcellus, UniProt P97266). The assay can be described thus: Tested for inhibitory effect on binding of [3H]DAMGO to opioid receptor mu in guinea pig cerebellum membranes. The assay is classed as cell membranes, Membrane.
For assay [2], the target named is Opioid receptors; mu/kappa/delta (Homo sapiens, UniProt P41145+P41143+P35372). The experiment in a line: Tested for opioid receptor agonistic activity in guinea pig ileum. The class given is functional, tissue-based, Cavia porcellus. As to conditions: target entry is the homologue from another species.

Sequence of Kappa-type opioid receptor (P41144 whole entry): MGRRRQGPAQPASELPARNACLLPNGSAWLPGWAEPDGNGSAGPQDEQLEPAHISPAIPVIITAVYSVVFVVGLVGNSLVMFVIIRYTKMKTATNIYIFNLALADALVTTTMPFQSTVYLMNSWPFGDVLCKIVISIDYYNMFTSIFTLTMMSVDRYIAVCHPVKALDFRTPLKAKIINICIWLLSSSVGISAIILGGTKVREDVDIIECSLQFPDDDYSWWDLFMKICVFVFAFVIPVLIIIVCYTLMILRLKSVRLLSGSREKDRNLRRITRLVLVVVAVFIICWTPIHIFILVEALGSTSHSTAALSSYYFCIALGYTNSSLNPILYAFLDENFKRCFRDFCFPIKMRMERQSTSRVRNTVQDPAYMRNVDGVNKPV
Sequence of Mu-type opioid receptor (P97266 whole entry): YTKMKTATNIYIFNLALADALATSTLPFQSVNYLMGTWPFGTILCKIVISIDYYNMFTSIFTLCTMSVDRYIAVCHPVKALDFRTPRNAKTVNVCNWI

Consider `C=CCN[C@@H](Cc1ccc(O)cc1)C(=O)NCC(=O)NCC(=O)N[C@@H](Cc1ccccc1)C(=O)N[C@@H](CC(C)C)C(=O)N[C@@H](CCCN=C(N)N)C(=O)N[C@@H](CCCN=C(N)N)C(=O)N[C@H](C(=O)N[C@@H](CCCN=C(N)N)C(=O)N1CCC[C@@H]1C(=O)N[C@@H](CCCCN)C(=O)O)[C@@H](C)CC`, for which the Activity in the assay filed under Cavia porcellus amounted to 7.6.

Compound `CC[C@H](C)[C@H](NC(=O)[C@H](CCCN=C(N)N)NC(=O)[C@H](CCCN=C(N)N)NC(=O)[C@H](CC(C)C)NC(=O)[C@H](Cc1ccccc1)NC(=O)CNC(=O)CNC(=O)[C@@H](N)Cc1ccc(O)cc1)C(=O)N[C@@H](CCCN=C(N)N)C(=O)N1CCC[C@@H]1C(=O)N[C@@H](CCCCN)C(=O)O` displayed an Activity in the assay filed under Cavia porcellus of 7.2.

As usually defined, the Ki is a dissociation constant, usually derived from enzyme kinetics or from competition with a known ligand. By IC50 is commonly meant the midpoint of a concentration-inhibition curve. Low values mean greater potency in that assay, high ones weaker potency in that assay. In the case of `C=CCN(CC=C)[C@@H](Cc1ccc(O)cc1)C(=O)NCC(=O)NCC(=O)N[C@@H](Cc1ccccc1)C(=O)N[C@@H](CC(C)C)C(=O)N[C@@H](CCCN=C(N)N)C(=O)N[C@@H](CCCN=C(N)N)C(=O)N[C@H](C(=O)N[C@@H](CCCN=C(N)N)C(=O)N1CCC[C@@H]1C(=O)N[C@@H](CCCCN)C(=O)O)[C@@H](C)CC`, the Ki was determined as 3.6 nM in assay [1] and 31.7 nM on Mu-type opioid receptor. The compound further registered an IC50 in assay [2] of 687 nM.

In the assay listed under Cavia porcellus, `CC[C@H](C)[C@H](NC(=O)[C@H](CCCN=C(N)N)NC(=O)[C@H](CCCN=C(N)N)NC(=O)[C@H](CC(C)C)NC(=O)[C@H](Cc1ccccc1)NC(=O)CNC(=O)CNC(=O)[C@H](Cc1ccc(O)cc1)NCC1CC1)C(=O)N[C@@H](CCCN=C(N)N)C(=O)N1CCC[C@@H]1C(=O)N[C@@H](CCCCN)C(=O)O` returned an Activity of 7.3. Moreover, the results for the inhibition constant (Ki) (in assay [1]; on Mu-type opioid receptor) were 0.02 nM and 9.6 nM, respectively. In assay [2], the concentration for half-maximal inhibition (IC50) was 2.16 nM.

As for `CN1CC[C@]23c4c5ccc(O)c4O[C@H]2[C@@H](O)C=C[C@H]3[C@H]1C5` [MORPHINE], in the assay filed under Cavia porcellus, the Activity worked out at 8.2.

The record behind these values is ChEMBL document CHEMBL1126112 (J Med Chem, 1992).
